# Measured values: ChEMBL document CHEMBL3988442, “University of Dundee, Small-Polar-MMV Screening Library” (2021)
# Several values for one entry are separate records, joined by “and”; a condition that tells them apart may be missing. Equal values may be shown once.
# Biological target: T1, Histidine--tRNA ligase (Leishmania infantum, UniProt A4I591)
# T1 sequence (A4I591 whole entry): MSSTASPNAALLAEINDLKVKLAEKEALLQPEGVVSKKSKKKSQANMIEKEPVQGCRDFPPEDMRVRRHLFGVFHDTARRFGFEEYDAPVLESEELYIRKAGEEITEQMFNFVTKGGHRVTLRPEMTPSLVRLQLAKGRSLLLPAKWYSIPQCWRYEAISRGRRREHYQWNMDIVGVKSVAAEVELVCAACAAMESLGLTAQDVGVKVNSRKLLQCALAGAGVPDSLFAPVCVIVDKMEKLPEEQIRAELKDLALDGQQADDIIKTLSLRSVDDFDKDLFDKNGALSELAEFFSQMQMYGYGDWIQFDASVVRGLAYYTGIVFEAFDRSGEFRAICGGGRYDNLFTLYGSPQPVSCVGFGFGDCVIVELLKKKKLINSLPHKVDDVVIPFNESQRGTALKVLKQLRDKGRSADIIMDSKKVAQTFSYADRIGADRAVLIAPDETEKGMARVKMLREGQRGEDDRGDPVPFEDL
# Assay: Leishmania infantum Histidine tRNA synthetase (LdHisRS)
# Format: functional
row,Structure (SMILES),IC50
1,c1ccc(Cn2cc(CNCC3CCCN3c3cccnn3)cn2)cc1 (centres undefined),> 100 µM
2,COc1cccn(CC(=O)N(C)CCOc2cc(C)cc(C)c2)c1=O,3.92 µM and 3.35 µM
3,CNC(=O)c1cn2cc(-c3ccccc3Cl)n(CC=C(C)C)c(=O)c2n1,54.6 µM and 36 µM
4,Cn1nc2c(cc1=O)CN(Cc1nc(-c3ccco3)no1)CC2,11.8 µM and 14 µM
5,CC(Nc1nc(-c2ccncc2)nc2c1CCNC2)c1ccccc1 (centres undefined),43.4 µM and 46.8 µM
6,COc1ccc(C(=O)N2CCN(c3cc(CCN)nc(C)n3)CC2)cc1,49.3 µM and 51.2 µM
7,COc1cccc(-c2n[nH]c3c2CN(C(=O)c2cccc(=O)[nH]2)CC3)c1,12.9 µM
8,c1cc(-c2ccc3c(c2)CCC32CCN(c3nncs3)CC2)co1,12.5 µM and 10.1 µM
9,O=C(CCc1n[nH]c2c1CCCC2)N1C[C@@H]2CC[C@H](C1)N(CC1CC1)C2,44.9 µM and 35.8 µM
10,NC(=O)C1CCCN(Cc2c(-c3ccco3)[nH]c3ncccc23)C1 (centres undefined),67.8 µM and 46 µM
11,Cn1nc2c(cc1=O)CN(Cc1nc(-c3ccccn3)no1)CC2,> 100 µM
12,CCc1ccc2c(C3CN(CC4CCC4)C3)ncn2c1,15.7 µM and 18.7 µM
13,COc1ccc(-c2noc(CN3CCc4cncnc4C3)n2)cc1,> 100 µM
14,Cc1cs/c(=N/C(=O)c2csc(NCC(C)C)n2)[nH]1,28.6 µM and 46.9 µM
15,NC(=O)c1ccc(N2CCCCC2)c(NC(=O)c2cc(Br)ccc2Cl)c1,30.2 µM and 29.7 µM
16,Cc1ccccc1-c1noc(CN2CCc3nn(C)c(=O)cc3C2)n1,25.2 µM and 21.2 µM
17,c1ccc(-c2cnc(CNC3CCCN(c4cccnn4)C3)o2)cc1 (centres undefined),43.5 µM and 30.5 µM
18,O=C(O)C1c2nc[nH]c2CCN1CC(c1ccccc1)c1ccccc1 (centres undefined),6.21 µM and 7.09 µM
19,C[C@H](NS(C)(=O)=O)C(=O)NCc1cc(-c2ccco2)n[nH]1,> 100 µM
20,CCC1CN(CCC(=O)N(C)C)CCN1CCOC (centres undefined),> 100 µM
21,CCS(=O)(=O)Nc1ccc2c(c1)C1(CCOCC1)CN2C,13.4 µM and 11 µM
22,CCN1CC2(CCOCC2)c2cc(NS(=O)(=O)CC)ccc21,8.64 µM and 21.4 µM
23,CN(C)CCn1c(=O)oc2ccc(NC(=O)N3CCCCCC3)cc21,> 100 µM

row,Structure (SMILES),IC50
1,CCc1ocnc1C(=O)N1CCN(c2ccc3ccccc3c2)CC1,57.4 µM and 54 µM
2,NCc1ccnc(Oc2ccccc2)c1,39.2 µM and 30.9 µM
3,Fc1ccc(N2CCC3(CC2)CC(OCc2cccnc2)CO3)cc1 (centres undefined),23.3 µM and 15.8 µM
4,COc1cc(CNc2cnn(C)c2)cc2c1OCCO2,> 100 µM
5,O=C(Nc1c(N2CCCC2)cccc1N1CCCC1)c1ccccn1,32.1 µM and 26.8 µM
6,O=C(NCc1ccco1)[C@@H]1CC[C@@H]2[C@@H](CCN2Cc2ccc(F)cc2)O1,59.4 µM and 27.4 µM
7,Cc1nnc(NCCc2coc(-c3ccccc3)n2)c(C#N)c1C,74.7 µM and 55.7 µM
8,Cn1ccnc1-c1cn(CCc2nnc(N)s2)nn1,> 100 µM
9,OC1CCCN(Cc2c(-c3ccco3)[nH]c3ncccc23)C1 (centres undefined),58.7 µM and 38.5 µM
10,CCCn1nc2c(cc1=O)CN(CC1CCCCO1)CC2 (centres undefined),33.8 µM and 42.3 µM
11,CN(Cc1ccccc1CN1CCCC1)c1ncnc2[nH]ccc12,44.8 µM and 48.7 µM
12,COc1ccc(CCN)cc1-c1ccc(C(N)=O)cc1,48.8 µM and 28 µM
13,CC(=O)Cc1c(C)nn(-c2cncc(N)c2)c1C,33.4 µM and 30.1 µM
14,O=C1CCC(C(=O)Nc2ccc(=O)n(Cc3ccc(Cl)c(Cl)c3)c2)N1 (centres undefined),10.1 µM and 9.92 µM
15,Cc1ncc2c(n1)CN(Cc1nnc(-c3occc3C)o1)CC2,64.7 µM and 82.6 µM
16,O=C1NCC(C(=O)Nc2ccc(=O)n(Cc3ccccc3Cl)c2)N1 (centres undefined),12.7 µM and 15.3 µM
17,Cc1ccn(C)c(=O)c1NC(=O)N(C)Cc1cccc(OC(C)C)c1,18.1 µM and 21.6 µM
18,O=C(NC1CCCN(c2ccc(OC(F)F)cc2)C1)c1ccon1 (centres undefined),> 100 µM
19,CCn1nnc2c1C(COC)CN(Cc1ccco1)C2 (centres undefined),> 100 µM
20,NC(=O)C1=NC2=NS(=O)(=O)c3ccccc3N2N1Cc1ccc(Br)cc1,41 µM and 69.9 µM
21,O=C(c1nc2c(s1)CCCN2CC1CC1)N1CCOCC1,19 µM and 13.2 µM
22,COc1cccc(N2CCN(Cc3cccc(CCN)c3)CC2=O)c1,23.3 µM and 28.2 µM
23,O=C1CC(c2ccc(C(=O)O)cc2)c2ncn(-c3cccc(Cl)c3)c2N1 (centres undefined),20.7 µM and 26.5 µM

row,Structure (SMILES),IC50
1,Cc1noc(C(C)Nc2ccc(N3CCOCC3)cc2C)n1 (centres undefined),> 100 µM
2,COc1ccc2c(c1)c(C(=O)Nc1nnn[nH]1)cn2C(C)C,> 100 µM
3,Cc1nc(CN(C)C2CCN(Cc3ccc4ccccc4n3)C2)no1 (centres undefined),59.9 µM and 39.8 µM
4,Cc1cc(C)cc(OCCC(=O)NC2CC(=O)N(C)C2)c1 (centres undefined),> 100 µM
5,Cn1cc(NC(=O)N2CCN(Cc3cscn3)CC2)ccc1=O,8.51 µM and 8.59 µM
6,Nc1nnc(SCC(=O)c2cc3c(cc2Cl)NC(=O)C3)s1,> 100 µM and 77.9 µM
7,CC1=C(C#N)C(=O)NC(=O)/C1=C\c1c(C)nn(-c2ccc(Cl)cc2)c1O,> 100 µM
8,CNc1[nH]nc(N)c1NC(=O)c1ccccc1,12.7 µM and 14.3 µM
9,Cc1nnc2n1CCN(C(=O)c1ccc(Cn3cccc3)cc1)C2,51.2 µM and 44 µM
10,Cn1cc(NS(=O)(=O)c2ccc(F)c(F)c2)ccc1=O,> 100 µM
11,CCCn1nc2c(cc1=O)CN(Cc1ccccn1)CC2,20.9 µM and 17.8 µM
12,COc1ccccc1C1(CNCc2ccc(C#N)cc2)CCOCC1,50.4 µM and 50.9 µM
13,CN(C)C(=O)CN1CCCC1c1cccc(Cc2ccccc2F)n1 (centres undefined),61.1 µM and 51.2 µM
14,O=C(CCN1CCCC1)N1CC[C@@H](c2ccc3ccccc3c2)[C@H](O)C1,63.5 µM and 54.7 µM
15,Cc1nn(CCC#N)c(C)c1[C@@H]1C=C[C@@H](NCc2cccc(Cl)c2)C1,> 100 µM
16,O=C(c1cc(-c2ccco2)nc2c(Cl)cccc12)N1C[C@H]2CNC[C@H]2C1,48.1 µM and 51.8 µM
17,O=C(c1cc(=O)n(-c2ccccc2)[nH]1)N1CCCC(c2ccn[nH]2)C1 (centres undefined),49.3 µM and 44.5 µM
18,Cc1cc(O)ncc1NS(=O)(=O)c1cccc(F)c1F,45.7 µM and 49.5 µM
19,NC(=O)NC(=O)CCN1CCN(CC2CC2)c2ccccc21,> 100 µM
20,CCC(=O)Nc1cc(Br)cn(C)c1=O,7.66 µM and 7.91 µM
21,Cc1nnc(SCC(=O)c2cc3c(cc2Cl)NC(=O)C3)o1,42.4 µM and 52.8 µM
22,CN1CCN(Cc2nnc(C3CCN(C(CO)CO)CC3)n2C)CC1,16 µM and 15.8 µM
23,CCC1CCc2c(c3ccccc3[nH]c2=O)O1 (centres undefined),> 100 µM

row,Structure (SMILES),IC50
1,CN(C)CCn1c(=O)oc2ccc(NC(=O)C3CCCO3)cc21 (centres undefined),> 100 µM
2,Cn1cnnc1C1CCCN(C(=O)c2cc(C3CC3)on2)C1 (centres undefined),> 100 µM
3,Cc1c(CN2CCCCC2)c(O)n(CCO)c(=O)c1C#N,34.4 µM and 35.9 µM
4,Cc1nn(-c2ccccn2)c(C)c1[C@@H]1C=C[C@@H](NC(=O)NC(C)C)C1,> 100 µM and 88 µM
5,O=C1CC(c2ccc(C(=O)O)cc2)c2ncn(-c3ccccc3F)c2N1 (centres undefined),19.1 µM and 25.2 µM
6,O=C(C1CCCCC1)N1C[C@@H]2CCN(c3cnccn3)C[C@@H]2C1,66.8 µM and 70.3 µM
7,COc1cc(CC(=O)Nc2cccc(C(=O)N(C)C)n2)ccc1C,24.8 µM and 36.9 µM
8,COc1ccc(Oc2nccc3occc23)cc1CN1CCCC1,66.1 µM and 62.2 µM
9,COc1ccc(NC(=O)C2CCCO2)cc1OCc1cccnc1 (centres undefined),> 100 µM and 72.6 µM
10,CN(C)CCN1CCO[C@@H]2CCN(C(=O)c3cccn3C)CC[C@H]21,> 100 µM
11,CC(C)c1ccc(C(=O)O)cc1S(=O)(=O)Nc1ccc(=O)n(C)c1,12.5 µM and 14.9 µM
12,Cc1nccn1-c1cccc(C2CCCN(C3CCCC3)C2)n1 (centres undefined),32.3 µM and 35.9 µM
13,O=C(c1ccc2[nH]ccc2c1)N1Cc2nc(CN3CCCCC3)oc2C1,33.7 µM and 23.5 µM
14,Cc1ccc(CN2C(=O)CCC2C(=O)Nc2cnn(C)c2)o1 (centres undefined),> 100 µM and 90.1 µM
15,CS(=O)(=O)CCOCCNc1cncc(Br)c1,> 100 µM
16,CC1=Nc2c(c(=O)[nH]n2C(C)C)C(c2ccc3c(c2)OCCO3)S1 (centres undefined),> 100 µM
17,Cc1nccn1-c1cccc(C2CCCN(C3CCCCC3)C2)n1 (centres undefined),36.7 µM and 33.6 µM
18,O=C(Nc1cccn(Cc2ccccc2)c1=O)c1ccncc1F,35.7 µM and 31.2 µM
19,CCOc1ccc(N(CCC#N)C(=O)c2ccnc(SC)c2)cc1,> 100 µM
20,COc1cccn(Cc2nnc(-c3cccc(F)c3)o2)c1=O,15.9 µM and 12.8 µM
21,Cc1nnc(NCCc2coc(-c3ccc(F)cc3)n2)c(C#N)c1C,> 100 µM and 55.9 µM
22,Cc1cc(NC(=O)CN2CCc3nn(C)c(=O)cc3C2)no1,> 100 µM
23,Cc1nnc(NCc2ccccc2Cl)c(C#N)c1C,24.6 µM and 31.1 µM

row,Structure (SMILES),IC50
1,COc1cccc(CN2CCN(CC(C)C)C(=O)C2C)c1O (centres undefined),6.15 µM and 5.67 µM
2,Cn1nccc1-c1ncc(-c2cc(C(=O)O)n(CC3CC3)c2)cn1,> 100 µM
3,CN(C)c1ncc(-c2c(-c3ccccc3)ncn2C(CO)C(=O)O)cn1 (centres undefined),> 100 µM
4,Cc1cc(C(=O)NCC(F)(F)F)c2c(C3CCCN3)noc2n1 (centres undefined),38.4 µM and 70 µM
5,NCCc1cccc(CN2CCN(c3ccccc3)C(=O)C2)c1,26.8 µM and 20.5 µM
6,CS(=O)(=O)N1CCCC(Cc2ccnc3ccncc23)CC1 (centres undefined),21.6 µM and 22.8 µM
7,CC(=O)N1CCN(c2ccccc2CNc2ccc3[nH]ncc3c2)CC1,> 100 µM and 76.7 µM
8,Cc1ccc(CNC(=O)c2nc3c(o2)CN(C(=O)c2cccnc2)C3)o1,37.2 µM and 54.7 µM
9,Cc1ncc2c(n1)CN(Cc1nnc(Cc3ccccc3)o1)CC2,48.1 µM and 49.9 µM
10,CCc1cc(N2CCC(F)(F)CC2)n2nc(C)c(C)c2n1,> 100 µM
11,COc1cccn(CC(=O)N(C)Cc2ccoc2)c1=O,> 100 µM
12,Cc1c(Cl)cccc1NC(=O)Cn1cc(C(=O)O)ccc1=O,> 100 µM
13,CC(NC(=O)c1coc(COc2cccc(F)c2)n1)c1nnc(N)s1 (centres undefined),98.7 µM and 60.1 µM
14,COc1cc(CCO)c(OC)c2c1OCO2,> 100 µM
15,Cc1nnc(NCC(c2ccco2)N(C)C)c(C#N)c1C (centres undefined),24.8 µM and 24.1 µM
16,NC(=O)CCS(=O)(=O)Cc1ccc(OCC(F)(F)F)cc1,> 100 µM and 68.4 µM
17,Cc1nnc(N2CCc3cnc(C(C)C)nc3C2)c(C#N)c1C,> 100 µM
18,COCCn1cc(-c2cc(C(=O)N3CCCC3)c3ccccn23)nc1C,> 100 µM
19,Cc1cc2nc(SCC(=O)N3CCCC3)n(-c3ccccc3)c(=O)c2[nH]1,80.7 µM and > 100 µM
20,c1cc(-c2nnc3sc(CCN4CCCC4)nn23)ccn1,> 100 µM
21,O=C1CN(C(=O)c2cc(-c3ccco3)nc3c(Cl)cccc23)CCN1,18.6 µM and 19.5 µM
22,CCCN1CCC(Cc2nn3c(C(C)C)nnc3s2)CC1,> 100 µM
